The values that follow come from paper PMC8436411 (ACS Medicinal Chemistry Letters, 2021).

Test [1] addresses T1, S. aureus DNA gyrase (Staphylococcus aureus, UniProt P20831).
T1 construct: purchased Inspiralis (Norwich, UK)
Briefly: DNA gyrase supercoiling inhibition assay (S. aureus). The format is biochemical. As to conditions: mean of two independent measurements ± SD. As for the experimental part: We synthesized and biologically evaluated ten new compounds. We determined their inhibitory activity, expressed as IC50 values, on both Gram-positive S. aureus and Gram-negative E. coli bacterial enzymes (DNA gyrase and topo IV), respectively. The in vitro antibacterial activity, expressed as minimum inhibitory concentration (MIC), was determined against broad spectrum of bacteria, including Gram-positive (Staphylococcus aureus, methicillin-resistant Staphylococcus aureus, Streptococcus agalactiae, and Enterococcus faecalis) and Gram-negative strains (Escherichia coli, Salmonella alachua, Pseudomonas aeruginosa, and Klebsiella pneumoniae), enriched with various MRSA strains resistant to various antibiotics as well as E. coli strains with increased membrane permeability and lack of efflux pump, as well. Furthermore, the selectivity of compounds for bacterial enzyme compared to the orthologous human topoisomerase IIα was also considered. The in vitro safety profile was determined by cytotoxicity assessment on human umbilical vein endothelial cell lines (HUVEC) and HepG2 liver cancer cell lines.
Determination of DNA gyrase and topoisomerase IV inhibitory activities
To determine the IC50 values of the compounds, a Gyrase Supercoiling High Throughput Plate assay kit and a TopoIV Relaxation High Throughput Plate assay kit, commercially available from Inspiralis (Norwich, UK), were used for S. aureus and E. coli. The assays were performed on black streptavidin-coated 96-well microtiter plates (Thermo Scientific Pierce, Norwich, UK) and the wells were first […]
BSA and 0.05% [v/v] Tween-20). Biotinylated oligonucleotide diluted with the wash buffer was then immobilized in each well and the excess was removed with the wash buffer. 1.5 U of the enzyme S. aureus or E. coli DNA gyrase (topoIV) was incubated together with 0.75 μg of relaxed (supercoiled) pNO1 plasmid as substrate in the presence of 3 μl inhibitor solution in 10% DMSO and 0.008% Tween-20 at 37°C for 30 min in a final reaction volume of 30 μl in the assay buffer (S. aureus DNA gyrase: 40 mM HEPES.KOH (pH 7.6), 10 mM magnesium acetate, 10 mM DTT, 2 mM ATP, 500 mM potassium glutamate and 0.05 mg/ml albumin; E. coli DNA gyrase: 35 mM Tris.HCl (pH 7.5), 24 […]
mg/ml albumin; S. aureus topo IV: 50 mM Tris.HCl (7.5), 5 mM MgCl 2, 5 mM DTT, 1.5 mM ATP, 350 mM potassium glutamate and 0.05 mg/ml albumin; E. coli topo IV: 40 mM HEPES.KOH (pH 7.6), 100 mM potassium glutamate, 10 mM magnesium acetate, 10 mM DTT, 1 mM ATP and 50 μg/ml albumin). The reaction was stopped by adding the TF buffer (50 mM NaOAc (pH 4.7), 50 mM NaCl and 50 mM MgCl2) to allow triplex formation (biotin oligonucleotide plasmid) for another 30 min. Finally, the unbound plasmid was washed off using the TF buffer and the Promega Diamond dye was added to T10 buffer (10 mM Tris-HCl (pH 8.0), 1 mM EDTA) solution. After 15 min the solution […]
Two inhibitor concentrations of 100 and 1 μM were used for pre-screening. The IC 50 values […]
(IC50) was calculated by nonlinear regression-based fitting of the inhibition curves using the log [inhibitor] versus response-variable slope (four parameters) – symmetrical equation, in GraphPad Prism 6.0 software (GraphPad Software, CA, USA). The IC50 value represents the average of two independent measurements.
The minimum inhibitory concentrations (MICs) were determined using the broth micro-dilution method in 96-well plate format according to the Clinical and Laboratory Standards Institute

In test [2] the test system is Enterococcus faecalis DRK 057 (ATCC 29212). Description: microbe, parasite or virus in culture. As for the experimental part:
(§1) The in vitro antibacterial activity, expressed as minimum inhibitory concentration (MIC), was determined against broad spectrum of bacteria, including Gram-positive (Staphylococcus aureus, methicillin-resistant Staphylococcus aureus, Streptococcus agalactiae, and Enterococcus faecalis) and Gram-negative strains (Escherichia coli, Salmonella alachua, Pseudomonas aeruginosa, and Klebsiella pneumoniae), enriched with various MRSA strains resistant to various antibiotics as well as E. coli strains with increased membrane permeability and lack of efflux pump, as well. […]
(§2) The minimum inhibitory concentrations (MICs) were determined using the broth micro-dilution method in 96-well plate format according to the Clinical and Laboratory Standards Institute […]
(§3) guidelines8 and European Committee on Antimicrobial Susceptibility Testing recommendations9. The bacterial suspension of the specific bacterial strain equivalent to the 0.5 McFarland turbidity standard was diluted with cation-adapted Mueller Hinton broth with TES (Thermo Fisher Scientific) to obtain a […]
(§4) The compounds dissolved in DMSO and inoculum were mixed together and incubated for 20 h at 35 °C.

Test [3] concerns Klebsiella pneumoniae. Description: microbe, parasite or virus in culture. As for the experimental part: as §1, §2, §3, §4
For test [4], the system named is E. coli D22. Description: microbe, parasite or virus in culture. Particulars: Escherichia coli. As to the method: as §1, §2, §3, §4
Test [5] relates to MRSA (QA-11.7). Description: microbe, parasite or virus in culture. As to conditions: Staphylococcus aureus, read-out: MIC MRSA (QA-11.7). As to the method:
as §1, §2, §3, §4

For test [6], the system named is E. coli (ATCC 25922). Description: microbe, parasite or virus in culture. As to conditions: Escherichia coli, ATCC25922, read-out: MIC E. coli (ATCC 25922). As for the experimental part:
as §1, §2, §3, §4

Test [7] has as its system MRSA (QA-12.1). Description: microbe, parasite or virus in culture. As to conditions: Staphylococcus aureus, read-out: MIC MRSA (QA-12.1). As to the method: as §1, §2, §3, §4
Test [8] concerns S. aureus (ATCC 29213). Description: microbe, parasite or virus in culture. Particulars: Staphylococcus aureus, ATCC29213, read-out: MIC S. aureus (ATCC 29213). As for the experimental part:
as §1, §2, §3, §4

The test system of test [9] is E. coli N43 (CGSC no. 5583). Description: microbe, parasite or virus in culture. Particulars: Escherichia coli. As for the experimental part:
as §1, §2, §3, §4

Test [10] deals with Streptococcus agalactiae RDK 047 (QA-990/02). Description: microbe, parasite or virus in culture. As for the experimental part: as §1, §2, §3, §4
Test [11] relates to Pseudomonas aeruginosa RDK 184 (DSM 939). Briefly: microbe, parasite or virus in culture. As to the method: as §1, §2, §3, §4
Test [12] has as its system Salmonella alachua RDK 030c (QA-1482/04). Description: microbe, parasite or virus in culture. As to the method:
as §1, §2, §3, §4

In test [13] the target is Human topoisomerase IIα (Homo sapiens, UniProt P11388). Briefly: Human topoisomerase IIα residual activity. The format is biochemical. As to conditions: residual activity at 10 μM compound; mean ± SD, two independent experiments; read-out: Human topoisomerase IIα (%RA).
[14] abbreviates: ATCC29212, read-out: MIC E. faecalis DRK 057 (ATCC 29212).
The mark [15] stands for this setting: ATCC29212, read-out: MIC Enterococcus faecalis DRK 057 (ATCC 29212).
Where [16] appears, read: read-out: MIC Klebsiella pneumoniae.
The mark [17] stands for this setting: read-out: MIC E. coli N43 (CGSC no. 5583).
[18] abbreviates: read-out: MIC E. coli N43 (CGSC# 5583).
The mark [19] stands for this setting: read-out: MIC S. agalactiae RDK 047 (QA-990/02).
Where [20] appears, read: read-out: MIC Streptococcus agalactiae RDK 047 (QA-990/02).
The mark [21] stands for this setting: DSM939, read-out: MIC P. aeruginosa RDK 184 (DSM 939).
The mark [22] stands for this setting: DSM939, read-out: MIC Pseudomonas aeruginosa RDK 184 (DSM 939).
Setting [23] is: read-out: MIC S. alachua RDK 030c (QA-1482/04).
[24] abbreviates: read-out: MIC Salmonella alachua RDK 030c (QA-1482/04).

Converted amounts (≈) assume the structure as drawn. “And” between values parts separate entries of the source, which are not always exact repeats. Identical values can stand only once. Like-named read-outs stand apart in the source and are kept apart here.

In general, IC50 refers to the concentration that gives 50% inhibition.

T1 sequence (P20831 whole entry, looked up): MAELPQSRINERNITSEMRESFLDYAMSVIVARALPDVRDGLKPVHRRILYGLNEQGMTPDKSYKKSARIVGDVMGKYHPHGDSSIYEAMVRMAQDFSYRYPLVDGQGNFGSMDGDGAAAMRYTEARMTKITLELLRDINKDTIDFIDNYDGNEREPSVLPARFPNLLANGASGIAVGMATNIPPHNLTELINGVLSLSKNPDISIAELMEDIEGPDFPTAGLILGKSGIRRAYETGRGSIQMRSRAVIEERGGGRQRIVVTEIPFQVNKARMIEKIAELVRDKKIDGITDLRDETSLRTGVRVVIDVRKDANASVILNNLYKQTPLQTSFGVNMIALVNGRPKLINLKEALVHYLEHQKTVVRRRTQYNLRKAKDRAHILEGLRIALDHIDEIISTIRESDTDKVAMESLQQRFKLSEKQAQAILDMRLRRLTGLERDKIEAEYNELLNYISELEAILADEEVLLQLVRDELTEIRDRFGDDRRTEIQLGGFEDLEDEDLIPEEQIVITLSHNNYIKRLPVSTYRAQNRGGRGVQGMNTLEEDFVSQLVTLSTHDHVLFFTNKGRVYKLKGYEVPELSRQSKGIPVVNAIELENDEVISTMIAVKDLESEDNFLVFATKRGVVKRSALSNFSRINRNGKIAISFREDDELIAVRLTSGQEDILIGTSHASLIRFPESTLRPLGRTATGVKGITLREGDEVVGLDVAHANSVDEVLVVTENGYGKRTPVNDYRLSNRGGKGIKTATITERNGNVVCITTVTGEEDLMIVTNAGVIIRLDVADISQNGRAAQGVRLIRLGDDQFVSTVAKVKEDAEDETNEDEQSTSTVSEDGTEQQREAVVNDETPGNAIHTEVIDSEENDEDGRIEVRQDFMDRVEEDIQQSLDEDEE
Sequence of Human topoisomerase IIα (P11388 whole entry): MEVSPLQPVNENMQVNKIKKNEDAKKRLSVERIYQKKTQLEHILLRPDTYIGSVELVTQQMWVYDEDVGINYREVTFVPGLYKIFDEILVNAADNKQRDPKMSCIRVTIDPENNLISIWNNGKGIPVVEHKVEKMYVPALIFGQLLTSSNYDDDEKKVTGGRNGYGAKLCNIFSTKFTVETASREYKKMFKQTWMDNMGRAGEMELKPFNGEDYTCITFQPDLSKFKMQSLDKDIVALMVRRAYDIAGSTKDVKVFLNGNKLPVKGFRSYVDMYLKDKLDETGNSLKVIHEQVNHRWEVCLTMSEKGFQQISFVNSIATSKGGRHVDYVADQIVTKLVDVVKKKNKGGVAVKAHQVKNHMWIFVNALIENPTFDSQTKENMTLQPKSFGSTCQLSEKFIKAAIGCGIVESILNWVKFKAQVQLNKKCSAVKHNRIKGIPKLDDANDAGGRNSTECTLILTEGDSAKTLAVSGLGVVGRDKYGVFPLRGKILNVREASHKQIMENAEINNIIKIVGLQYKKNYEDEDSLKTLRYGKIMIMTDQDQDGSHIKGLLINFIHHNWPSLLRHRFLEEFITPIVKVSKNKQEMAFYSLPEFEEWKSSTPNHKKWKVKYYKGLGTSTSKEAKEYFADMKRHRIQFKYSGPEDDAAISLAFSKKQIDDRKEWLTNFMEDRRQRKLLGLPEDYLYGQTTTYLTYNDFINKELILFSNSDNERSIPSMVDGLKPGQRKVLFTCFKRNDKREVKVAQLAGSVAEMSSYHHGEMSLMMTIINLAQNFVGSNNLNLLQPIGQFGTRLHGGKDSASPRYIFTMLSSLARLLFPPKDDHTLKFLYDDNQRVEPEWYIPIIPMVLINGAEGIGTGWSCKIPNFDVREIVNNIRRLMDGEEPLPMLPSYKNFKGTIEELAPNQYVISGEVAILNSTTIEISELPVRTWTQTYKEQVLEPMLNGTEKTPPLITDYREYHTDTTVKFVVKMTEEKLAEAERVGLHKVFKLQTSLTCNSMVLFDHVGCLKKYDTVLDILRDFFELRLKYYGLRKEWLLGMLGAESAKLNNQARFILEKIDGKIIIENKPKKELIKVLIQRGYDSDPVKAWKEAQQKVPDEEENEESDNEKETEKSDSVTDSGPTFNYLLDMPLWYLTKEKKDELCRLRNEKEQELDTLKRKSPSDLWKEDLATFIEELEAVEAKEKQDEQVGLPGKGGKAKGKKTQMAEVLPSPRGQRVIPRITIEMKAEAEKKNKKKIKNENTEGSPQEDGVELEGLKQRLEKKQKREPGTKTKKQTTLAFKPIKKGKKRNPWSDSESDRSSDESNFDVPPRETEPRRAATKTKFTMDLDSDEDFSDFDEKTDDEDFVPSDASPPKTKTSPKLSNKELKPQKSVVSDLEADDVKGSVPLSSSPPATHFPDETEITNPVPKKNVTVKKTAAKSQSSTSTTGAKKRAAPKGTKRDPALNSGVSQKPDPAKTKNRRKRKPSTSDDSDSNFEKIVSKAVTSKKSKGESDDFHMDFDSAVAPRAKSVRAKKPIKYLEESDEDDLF

Turning to `COc1ccc2nccc(CCN3CCC(NCc4cc(F)c(Br)cc4F)CC3)c2n1` [Compound 9], 9 ± 1 nM corresponded to half-maximal inhibition in test [1] (IC50). Besides, the MIC in [2] (setting [14]) was determined as 1.02 µM; in test [2] (setting [15]) it was 0.5 µg/mL; in [3] (read-out: MIC K. pneumoniae), 130 µM; in test [3] (setting [16]) it was 64 µg/mL; in test [4] (D22, read-out: MIC E. coli D2), 0.509 µM; in test [4] (D22, read-out: MIC E. coli D22) it was 0.25 µg/mL. Besides, the MIC in [5] was 0.033 µM and 0.016 µg/mL; in test [6], 2.04 µM and 1 µg/mL; in test [7], 0.033 µM and 0.016 µg/mL; in test [8], 0.016 µM and 0.008 µg/mL; in test [9] (setting [17]) it was 0.062 µg/mL; in test [9] (setting [18]), 0.126 µM. In addition, the MIC came to 0.509 µM in test [10] (setting [19]); 0.25 µg/mL in test [10] (setting [20]); 260 µM in test [11] (setting [21]); 128 µg/mL in [11] (setting [22]); 32.6 µM in [12] (setting [23]); 16 µg/mL in [12] (setting [24]). Further, the remaining activity at 10 µM in test [13] amounted to 98.83 ± 0.11%.
Consider `COc1ccc2nccc(CCN3CCC(NCc4ccc(Br)c(F)c4F)CC3)c2n1` [Compound 10], for which, in [1], the midpoint of inhibition, the IC50, lay at 9 nM. Besides, the MIC in [2] (setting [14]) was determined as 4.07 µM; in [2] (setting [15]), 2 µg/mL; in test [3] (read-out: MIC K. pneumoniae) it was 130 µM; in test [3] (setting [16]) it was 64 µg/mL; in test [4] (D22, read-out: MIC E. coli D2), 1.02 µM; in test [4] (D22, read-out: MIC E. coli D22) it was 0.5 µg/mL. The MIC in [5] is 0.126 µM and 0.062 µg/mL; in test [6] it was 8.14 µM and 4 µg/mL; in test [7], 0.126 µM and 0.062 µg/mL; in [8] it was 0.063 µM and 0.031 µg/mL; in [9] (setting [17]), 0.125 µg/mL; in test [9] (setting [18]) it was 0.254 µM. In addition, the MIC in [10] (setting [19]) is 4.07 µM; in test [10] (setting [20]) it was 2 µg/mL; in test [11] (setting [21]) it was greater than 260 µM; in [11] (setting [22]), greater than 128 µg/mL; in test [12] (setting [23]), 32.6 µM; in test [12] (setting [24]) it was 16 µg/mL. Moreover, the remaining activity at 10 µM in test [13] is 98.11 ± 0.91%.
As to `O=c1ccc2ncc(=O)n3c2n1C[C@H]3CN1CCC(NCc2cc3c(cn2)OCCC3)CC1` [Gepotidacin, gepotidacin, reference compound], the MIC is 17.8 µM in [3] (read-out: MIC K. pneumoniae); 8 µg/mL in test [3] (setting [16]); 0.279 µM in test [4] (D22, read-out: MIC E. coli D2); 0.138 µM and 0.062 µg/mL in test [5]; 2.23 µM and 1 µg/mL in [6]; 0.279 µM and 0.125 µg/mL in test [7]. Moreover, the MIC in test [8] is 0.279 µM (≈ 0.125 µg/mL); in test [9] (setting [17]), 0.016 µg/mL; in test [9] (setting [18]), 0.036 µM; in [11] (setting [21]) it was 17.8 µM; in test [11] (setting [22]), 8 µg/mL; in test [12] (setting [23]) it was 8.92 µM. Besides, the MIC in test [12] (setting [24]) was determined as 4 µg/mL.
